Measured values taken from patent US20070027195A1, “Novel compositions comprising higher primary alcohols and nicottinic acid and process of preparation thereof” (PANACEA BIOTEC LTD., priority 2004, published 2007).
Marks after values point to notes of the source that are not given here.

System: mice fed with hypercholesterolemic diet
Experiment: Cholesterol diet-induced hypercholesterolemia in mice (serum lipid profile)
Format: in vivo, Swiss mice
Settings: for HDL-C / LDL-C / Total cholesterol / Triglycerides / VLDL-C: hypercholesterolemic diet, fasting serum, mean ± S.E.M.
Method: In the present invention, the observed unexpected synergistic lipid lowering effect of combination of Extract-A and nicotinic acid is evidenced by the test conducted in mice. Swiss mice of either sex were procured from Central Animal House facility; Panacea Biotec Ltd., India. Animals weighing 20-25 g at the time of testing were used throughout. All animals were dosed sequentially by the oral route with Extract-A and/or nicotinic acid suspended in 0.5% of carboxy methyl cellulose (CMC). A dosing volume of 10 ml/kg was used for each sequential suspension.
The fasting serum lipid profile (TC, TGs, LDL-C, HDL-C, and VLDL) was estimated before initiation of the experiment. Total study duration was of 8 weeks. Hypercholesterolemia was induced by feeding standard chow mixed with 1% cholesterol and 0.2% cholic acid to mice (Kaur and Kulkarni, 2000). Control animals received standard mice chow for 8 weeks whereas cholesterolemic control animals received hypercholesterolemic diet for 8 weeks. The presence of hyperlipidemia in mice was confirmed by estimating serum lipid parameters after 4 weeks. Thereafter, various doses of Extract-A and/or nicotinic acid were administered for another 4 weeks during which animals were fed with high cholesterol diet. Blood samples were collected from fasted mice and analyzed for any alteration in serum lipid profile after 4 weeks of test compound(s) administration.
All the data were expressed as mean ±S.E.M. (Standard Error of Mean). Student t-test was used to compare the lipid parameters between animals fed with standard and hypercholesterolemic diet. The difference between various drug treated groups was analyzed by ANOVA followed by Dunnett's test. A value of P<0.05 was considered as statistically significant.

What does the source list for `O=C(O)c1cccnc1` [Nicotinic acid]?
HDL-C (10 mg/kg p.o. for 4 weeks): 45.82 ± 4.9^a mg/dl; LDL-C (10 mg/kg p.o. for 4 weeks): 65.5 ± 7.01^a mg/dl; Total cholesterol (10 mg/kg p.o. for 4 weeks): 118.0 ± 4.3^a mg/dl; Triglycerides (10 mg/kg p.o. for 4 weeks): 33.3 ± 2.6^a mg/dl; VLDL-C (10 mg/kg p.o. for 4 weeks): 20 ± 0.52^a mg/dl; HDL-C (20 mg/kg p.o. for 4 weeks): 42.16 ± 3.19^a mg/dl; LDL-C (20 mg/kg p.o. for 4 weeks): 61.2 ± 2.14^a mg/dl; Total cholesterol (20 mg/kg p.o. for 4 weeks): 109.5 ± 1.60^a mg/dl; Triglycerides (20 mg/kg p.o. for 4 weeks): 30.66 ± 1.58^a mg/dl; VLDL-C (20 mg/kg p.o. for 4 weeks): 6.13 ± 0.31^a mg/dl; HDL-C (40 mg/kg p.o. for 4 weeks): 51.33 ± 2.04^a mg/dl; LDL-C (40 mg/kg p.o. for 4 weeks): 44.53 ± 2.17^a mg/dl; Total cholesterol (40 mg/kg p.o. for 4 weeks): 101.6 ± 2.59^a mg/dl; Triglycerides (40 mg/kg p.o. for 4 weeks): 29.0 ± 1.46^a mg/dl; VLDL-C (40 mg/kg p.o. for 4 weeks): 5.8 ± 0.29^a mg/dl; Effect on serum lipid parameters in comparison to hypercholesterolemic control (in words) (10-40 mg/kg, p.o., dose dependently): reversed all the serum lipid parameters
